Data taken from US20190358176A1, “METHODS OF SENSITIZING CANCER CELLS TO IMMUNE CELL KILLING” (University of Pittsburgh - of the Commonwealth System of …, priority 2017, published 2019).
Like-named read-outs stand apart in the source and are kept apart here.

Key:
[1] = system: endothelial cell line; settings: prior SAR study (12); cited from earlier work
[2] = system: zebrafish embryos; settings: prior SAR study (12); cited from earlier work
[3] = system: MDA-MB-231 cells; assay: Immune cell killing (sensitization to PBMC-derived LAK); type: cell-based, human
Protocol: Peripheral blood mononuclear cells were obtained from healthy volunteers with an established IRB approved protocol, separated from heparinized blood on Ficoll-hypaque (GE Healthcare, Chicago) gradients as previously reported (16). Cells were cultured in RPMI 1640 supplemented with 10% FCS, 1% glutamine, 1% penicillin/streptomycin, and stimulated with 6,000 IU of Interleukin 2 for 24 hours. After incubation, cells were washed with PBS and counted. In parallel, MBA-MB-231 cells were pre-treated in a 384 well plate with vehicle or BCI-215 (3 μM). After 24 hours in culture, medium was replaced and PBMC added in two-fold serial dilutions starting with a 50-fold excess of PBMCs in triplicate. After 24 hours of co-culture, cells were fixed with formaldehyde/Hoechst 33342, washed twice with PBS, and imaged on the ArrayScan II. Cancer cells were identified by their larger nuclei compared with PBMC, setting a size gate in the DAPI channel. In experiments with chemotherapeutics, cells carrying a biosensor consisting of a mitochondrial targeting sequence derived from cytochrome c oxidase VIII linked to GFP that is a surrogate for cytochrome c release from mitochondria (17) were pre-treated for 24 hours with cisplatin (2 μM) or doxorubicin (400 nM), exposed to LAK as above, and cancer cells identified and quantified by green fluorescence. Cell densities were normalized to those in the absence of PBMCs. Mean cell densities from multiple independent experiments were averaged and plotted in GraphPad Prism.

[4] = system: MDA-MB-231 cells; assay: Detection and quantitation of ROS in cancer cells (CM-H2-DCFDA); type: cell-based, human; settings: 50 μM
Protocol: Detection and quantitation of ROS in cancer cells was performed as described before (14). Briefly, MDA-MB-231 cells were labeled with Hoechst 33342, loaded with CM-H2-DCFDA (5 μM, 15 min), and treated with test agents for 10 min. After two washes, cells were analyzed for Hoechst and ROS/FITC fluorescence on the ArrayScan II. Cells were classified as positive for ROS if their average FITC intensity exceeded a threshold defined as the average FITC intensity plus one SD from DMSO-treated wells.

[5] = system: MDA-MB-231 cells; assay: BCI-215 toxicity in the presence of doxorubicin; type: cell-based, human; settings: doxorubicin 5 μM pre-treated 2-3 hours
Protocol: FIG. 9. Reduced toxicity of BCI-215 in the presence of doxorubicin. MDA-MB-231 carrying the mitochondrial-targeted, GFP-labeled cytochrome C biosensor were treated for 2-3 hours with vehicle (DMSO) or doxorubicin (5 μM) before being exposed to concentration gradients of BCI-215 for 20 h. Plates were scanned live on an ImageXpress high content reader at 20× magnification and GFP positive cells enumerated. Cell densities were normalized to vehicle or doxorubicin alone, respectively. Data are the averages ±SD from three independent experiments, each performed in quadruplicate.

[6] = system: rat hepatocytes; assay: ROS generation in hepatocytes (DHE staining); type: cell-based
Protocol: Cells were cultured as above and labeled four hours following drug addition with 4 μM DHE for 2 hours. Hoechst 33342 was added to a 4 μg/ml final concentration during the final hour of incubation. In the presence of ROS, DHE is oxidized to a red fluorescent dye (oxyethidium). Cells were imaged as above and the percentage of oxyethidium-nuclear positive cells calculated based on a threshold set with vehicle treated cells.

[7] = system: MDA-MB-231 cells; assay: HCA of apoptosis and ERK phosphorylation (multiparametric: nuclear condensation, caspase-3 cleavage, ERK phosphorylation); type: cell-based, human; settings: for IC50: Homo sapiens, 24 hours
Protocol: MDA-MB-231 cells (10,000/well) were treated with identical concentration gradients of test agents on the right and left half of a 384 well microplate for later assessment of potential compound autofluorescence. After 24 hours, cells were fixed, permeabilized with 0.2% Triton X-100, blocked with 1% BSA/PBS, and immunostained with anti-phospho-ERK (E10, CST cat#9106L)/AlexaFluor488 and anti-cleaved caspase-3 (CST cat#9664L)/AlexaFluor594 primary/secondary antibody pairs. Plates were imaged on the ArrayScan II using a 10×0.5NA objective. Each well was background corrected by subtracting mean phospho-ERK and cleaved caspase-3 intensities from wells that had received secondary antibody only. Data in Table 1 are the averages of the indicated numbers of independent experiments, each performed in quadruplicate. IC50, standard error, and 95% confidence intervals were calculated by […] in GraphPad Prism.
Multiple data points were analyzed in GraphPad Prism by one-way ANOVA using Dunnett's multiple comparison test. EC50/IC50 values were obtained from at least three independent experiments by non-linear regression using a four parameter logistic equation. IC50, standard error, and 95% confidence intervals were calculated in GraphPad.

[8] = system: MDA-MB-231 cells; assay: Colony formation in three dimensional matrigel culture; type: cell-based, human
Protocol: MDA-MB-231 cells (2000/well) transduced with a biosensor consisting of EGFP with a mitochondrial targeting sequence derived from cytochrome-C oxidase subunit VIII (52) were trypsinized, resuspended in RPMI1640 containing 2% FBS and 2% matrigel, and seeded in 384 well microplates on a 15 μl cushion of undiluted matrigel. After 24 hours, cells were treated with various concentrations of BCI-215 or vehicle (0.2% DMSO). After two days, drug was washed out and cells allowed to expand for an additional three to five days. At the end of the study, medium was replaced with HBSS containing 4 μg/ml PI for 1 hour, and plates scanned live on an ImageXpress Ultra HCS reader, acquiring z-stacks (4× objective, 20 planes, 50 μm) in the green and red channels. Cell numbers were quantified from maximum projection images using the Multiwavelength Cell Scoring application.

O=C1/C(=C/c2ccccc2)C(NC2CCCCC2)c2cc(Br)ccc21 (centres unmarked) [BCI-215]
toxicity to an endothelial cell line [1]: non-toxic
toxicity to zebrafish embryos [2]: non-toxic
difference in killing versus vehicle ([3]; BCI-215 3 μM pre-treatment versus vehicle): well over three log differences in killing
LAK number at maximal sensitization ([3]; MDA-MB-231 pre-treated with BCI-215 3 μM for 24 hours): 1000 LAK/well
sensitization to LAK activity ([3]; pre-treated 24 hours: BCI-215 3 μM, cisplatin 2 μM, doxorubicin 400 nM): sensitization at lower effector ratios than cisplatin or doxorubicin
ROS generation at 50 μM [4]: did not generate ROS
toxicity of BCI-215 after doxorubicin pre-treatment (cell numbers) [5]: reduced the toxicity of BCI-215
generation of ROS in hepatocytes (DHE) [6]: does not Generate Reactive Oxygen Species
nuclear morphology ([7]; BCI and BCI-215 at 22 μM): shrunken, condensed nuclei that resembled pyknosis
IC50 ([7]; induction of phospho-ERK, read-out: IC50 ERK phosphorylation): 15.4 µM
IC50 ([7]; read-out: IC50 Caspase-3 cleavage): 7.33 µM
IC50 ([7]; read-out: IC50 Nuclear condensation): 12.8 µM
cell lysis (PI positivity) ([8]; longer-term 3D matrigel assay): pronounced cell lysis
colony formation ([8]; matrigel-on-top model, two days of exposure then washout): inhibited colony formation
